Measured values: ChEMBL document CHEMBL2010668 (Bioorg Med Chem Lett, 2012)

Key:
[1] = Cytotoxicity against mouse Melan-a cells at 46.64 uM; format: cell-based
[2] = Cytotoxicity against mouse Melan-a cells assessed as cell survival at 80 uM; format: cell-based; conditions: read-out: Survival
cells = conditions: Mus musculus, Melan-a
Description: Depigmenting activity in mouse Melan-a cells assessed as melanin production

Tyrosinase = target: T1, Tyrosinase (Agaricus bisporus, UniProt O42713); assay: Inhibition of mushroom tyrosinase
T1 sequence (O42713 whole entry): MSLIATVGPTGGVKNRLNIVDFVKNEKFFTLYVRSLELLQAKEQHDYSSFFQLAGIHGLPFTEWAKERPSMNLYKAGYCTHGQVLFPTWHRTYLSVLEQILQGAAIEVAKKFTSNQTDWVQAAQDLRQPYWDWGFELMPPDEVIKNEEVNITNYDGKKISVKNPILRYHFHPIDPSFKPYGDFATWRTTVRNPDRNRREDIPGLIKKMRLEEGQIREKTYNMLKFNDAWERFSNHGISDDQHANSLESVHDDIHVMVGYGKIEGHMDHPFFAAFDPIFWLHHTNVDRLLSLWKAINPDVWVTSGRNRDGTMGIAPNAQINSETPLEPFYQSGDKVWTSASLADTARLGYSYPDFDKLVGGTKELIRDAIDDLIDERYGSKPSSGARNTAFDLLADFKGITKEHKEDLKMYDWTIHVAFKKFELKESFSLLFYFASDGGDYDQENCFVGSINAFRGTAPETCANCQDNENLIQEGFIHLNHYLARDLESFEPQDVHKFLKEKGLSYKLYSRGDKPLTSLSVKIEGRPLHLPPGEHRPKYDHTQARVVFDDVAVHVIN

[3] = Cytotoxicity against mouse Melan-a cells assessed as cell survival at 100 uM; format: cell-based; conditions: read-out: Survival
[4] = Cytotoxicity against mouse Melan-a cells assessed as cell survival at 50 uM; format: cell-based; conditions: read-out: Survival

| Structure (SMILES) | Activity [1] | viability at 80 µM [2] | IC50 (cells) | IC50 (Tyrosinase) | viability at 100 µM [3] | viability at 50 µM [4] |
| --- | --- | --- | --- | --- | --- | --- |
| O=C(/C=C/c1ccc2c(c1)OCO2)Oc1coc(CO)cc1=O | Non-toxic | 98.9% | 46.6 µM | > 200 µM |  |  |
| O=C(/C=C/c1ccc2c(c1)OCO2)OCc1cc(=O)c(O)co1 |  |  | > 100 µM | 1.53 µM | 97.1% |  |
| O=C(/C=C/c1ccc2c(c1)OCO2)OC(=O)/C=C/c1ccc2c(c1)OCO2 |  |  | > 100 µM | > 100 µM | 97.1% |  |
| O=C(/C=C/c1ccc2c(c1)OCO2)OCc1cc(=O)c(OCc2cc(=O)c(O)co2)co1 |  |  | 23.5 µM | > 100 µM |  | 95.9% |
